Results published in patent US11512053B2, “Arginine methyltransferase inhibitors and uses thereof” (priority 2013, dated 2022).
Like-named read-outs stand apart in the source and are kept apart here.

Columns and labels:
[1] = target: full-length human PRMT6 (Flag- and His-tagged) (Homo sapiens, UniProt Q96LA8); assay: PRMT6 Biochemical Assay (3H-SAM Flashplate, peptide substrate); settings: read-out: Biochemical IC50 PRMT6
In short: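 Radiometric methyltransferase readout: tritium transfer onto a biotin-tagged histone H4 36-50 peptide bearing monomethyl K44 (75 nM), captured on streptavidin Flashplates after stopping with 400 uM unlabeled SAM. Enzyme is baculovirus-expressed Flag-PRMT6-His at 1 nM, given 30 min with compound at room temperature before adding 200 nM 3H-SAM and 250 nM cold SAM (pH 7.6 Bicine, 2% DMSO). Percent inhibition relative to max/min (1 mM SAH) controls, curve-fit to IC50.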

[2] = tested on: mono-methyl arginine in RKO cells; assay: RKO Methylation Assay, In Cell Western (ICW) for detection of mono-methyl arginine and DNA content; assay type: cell-based; settings: Homo sapiens, RKO, 72 h, RKO cells, read-out: In Cell Western EC30
In short: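 RKO cells were treated with compound for 72 hours at 37 °C, methanol-fixed and stained overnight at 4 °C with anti-mono-methyl arginine (1:200), with DRAQ5 for DNA. Odyssey 800/700 nm intensity ratio was normalized to DMSO and 20 μM reference-compound controls. EC30 from triplicate nine-point curves.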

[3] = single experiment or average of multiple experiments
[4] = 72 hours compound incubation, mono-methyl arginine signal normalised to DNA content (DRAQ5), percent activation vs 20 μM reference compound
[5] = 72 hours incubation, mono-methyl arginine signal normalised to DNA content, single experiment or average of multiple experiments

Sequence of full-length human PRMT6 (Flag- and His-tagged) (Q96LA8 with tags, fused parts or gaps): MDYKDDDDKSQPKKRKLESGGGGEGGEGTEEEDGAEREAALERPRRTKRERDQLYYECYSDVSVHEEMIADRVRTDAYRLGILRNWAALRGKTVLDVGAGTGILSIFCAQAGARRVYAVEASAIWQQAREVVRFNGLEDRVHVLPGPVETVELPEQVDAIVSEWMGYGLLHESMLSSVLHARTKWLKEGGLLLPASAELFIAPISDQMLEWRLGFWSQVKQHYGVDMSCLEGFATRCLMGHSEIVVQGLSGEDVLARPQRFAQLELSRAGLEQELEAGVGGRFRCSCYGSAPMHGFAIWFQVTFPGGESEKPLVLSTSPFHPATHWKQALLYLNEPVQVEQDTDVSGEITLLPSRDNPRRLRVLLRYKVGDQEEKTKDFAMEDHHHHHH

IC50 [1] [nM]	IC50 [1, 3] [nM]	SMILES	EC30 [2, 4] [nM]	EC30 [2, 5] [nM]
101 to 1000	112	CNCCN(C)Cc1c[nH]nc1C1CCC2(CC1)OCCCO2 [Compound 160]	< 3000	166
< 100	72.9	CNCCN(C)Cc1c[nH]nc1C1CCC2(CC1)C(=O)NC(=O)N2C (stereo not drawn) [Compound 161]	3010 to 12000	5020
< 100	61	CCN1C(=O)N(C)CC12CCC(c1n[nH]cc1CN(C)CCNC)CC2 (stereo not drawn) [Compound 162]	3010 to 12000	6680
< 100	65.7	CNCCN(C)Cc1c[nH]nc1C1CCC2(CC1)CCN(CCC(C)C)C2=O (stereo not drawn) [Compound 163]	< 3000	66
< 100	70.8	CNCCN(C)Cc1c[nH]nc1C1CCC2(CC1)CCN(CC(C)C)C2=O (stereo not drawn) [Compound 164]	< 3000	78
101 to 1000	120	CNCCN(C)Cc1c[nH]nc1C1CCC2(CC1)CC(=O)N(CCC(C)C)C2 (stereo not drawn) [Compound 165]	< 3000	510
< 100	48.6	CNCCN(C)Cc1c[nH]nc1[C@H]1CC[C@@H](COC)CC1 [Compound 166]	< 3000	83
< 100	31.5	CNCCN(C)Cc1c[nH]nc1[C@H]1CC[C@H](COC)CC1 [Compound 167]	< 3000	18
< 100	45.1	CCOC1CC2(CCC(c3n[nH]cc3CN(C)CCNC)CC2)CC1OCC (stereo not drawn) [Compound 168]	< 3000	85
< 100	17.8	CNCCN(C)Cc1c[nH]nc1C1CCC(CC(C)C)CC1 (stereo not drawn) [Compound 169]	< 3000	16
< 100	41.1	CNCCN(C)Cc1c[nH]nc1C1CCC2(CC1)C(=O)N(C)C(=O)N2C (stereo not drawn) [Compound 171]	< 3000	192
< 100	89.9	CNCCN(C)Cc1c[nH]nc1C1=CCC(CCOC)(CCOC)CC1 [Compound 173]	< 3000	408
< 100	84.4	CNCCN(C)Cc1c[nH]nc1C1CCC(CCOC)(CCOC)CC1 [Compound 174]	< 3000	85
< 100	37.6	CNCCN(C)Cc1c[nH]nc1C1CCC2(CC1)NC(=O)NC2=O (stereo not drawn) [Compound 175]	> 12000	> 20000
< 100	36.4	CNCCN(C)Cc1c[nH]nc1C1CCC2(CCNC2=O)CC1 (stereo not drawn) [Compound 176]	< 3000	2140
101 to 1000	113	CNCCN(C)Cc1c[nH]nc1C1CCC2(CC1)OCCO2 [Compound 177]	< 3000	571
< 100	15.7	CNCCN(C)Cc1c[nH]nc1C1CCC2(CCOCC2)CC1 [Compound 178]	< 3000	76
< 100	62.9	CNCCN(C)Cc1c[nH]nc1C1CC(C)OC(C)C1 (stereo not drawn) [Compound 179]	< 3000	476
< 100	14.7	CNCCN(C)Cc1c[nH]nc1[C@H]1CC[C@H](C(C)C)CC1 [Compound 180]	< 3000	19
< 100	27.9	CNCCN(C)Cc1c[nH]nc1[C@H]1CC[C@@H](C(C)C)CC1 [Compound 181]	< 3000	107
< 100	73.5	CNCCN(C)Cc1c[nH]nc1C1CCC(O)C2(CCCC2)C1 (stereo not drawn) [Compound 182, 9-[4-({methyl[2-(methylamino)ethyl]amino}methyl)-1H-pyrazol-3-yl]spiro[4.5]decan-6-ol]	< 3000	411
< 100	35.2	CNCCN(C)Cc1c[nH]nc1C1CCC(C)(C)C(O)C1 (stereo not drawn) [Compound 185, 2,2-dimethyl-5-[4-({methyl[2-(methylamino)ethyl]amino}methyl)-1H-pyrazol-3-yl]cyclohexan-1-ol]	< 3000	453
101 to 1000	261	CNCCN(C)Cc1c[nH]nc1[C@H]1CC[C@H](OCCOc2ccccc2)CC1 [Compound 187]	3010 to 12000	3160

SMILES	IC50 [1] [nM]	IC50 [1, 3] [nM]	EC30 [2, 4] [nM]	EC30 [2, 5] [nM]
CNCCN(C)Cc1c[nH]nc1C1CCC2(CC1)CN(C)C(=O)N2C (stereo not drawn) [Compound 172]	< 100	45.8	3010 to 12000	4460
